Values quoted from earlier work, collected in patent US20070053983A1 (priority 2005, published 2007).

System: β-adrenergic receptors
Conditions: man; reduced heart rate, cardiac output and exercise systolic pressure; inhibition of isoproterenol-induced and reflex orthostatic tachycardia

Compound: COCCc1ccc(OCC(O)CNC(C)C)cc1 (stereo not shown) [Metoprolol]
- β-blocking activity: confirmed the β-blocking activity
